Measurements reported in the supplement of paper PMC10307832.

What was measured:
Assay in all cases: relative viability (nuclei count vs DMSO), 5 days (fraction); higher = more cells survive
201T = system: 201T
Outline: (§1)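 Cells from lung cancer lines were seeded into 1536-well plates and, one day later, dosed by pin tool. Treatments were either a single drug or a fixed dose of an anchor drug with five library-drug doses (not always all listed) in √10 steps. After 5 days, nuclei were stained in a one-step fixation (final 0.05% Triton X-100, 1% formaldehyde, 1 ug/ml Hoechst) and counted on 4× images, and relative viability is the treated-to-vehicle nuclei ratio, as the median of duplicate plates.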

LOU-NH91 = system: LOU-NH91
Outline: as §1

NCI-H727 = system: NCI-H727
Outline: as §1

HCC-366 = system: HCC-366
Outline: as §1

HARA = system: HARA
Outline: as §1

ABC-1 = system: ABC-1
Outline: as §1

NCI-H2009 = system: NCI-H2009
Outline: as §1

EKVX = system: EKVX
Outline: as §1

NCI-H1666 = system: NCI-H1666
Outline: as §1

NCI-H3122 = system: NCI-H3122
Outline: as §1

NCI-H460 = system: NCI-H460
Outline: as §1

PC-14 = system: PC-14
Outline: as §1

BEN = system: BEN
Outline: as §1

NCI-H661 = system: NCI-H661
Outline: as §1

NCI-H2170 = system: NCI-H2170
Outline: as §1

NCI-H1437 = system: NCI-H1437
Outline: as §1

COR-L 105 = system: COR-L 105
Outline: as §1

CAL-12T = system: CAL-12T
Outline: as §1

LK-2 = system: LK-2
Outline: as §1

NCI-H1650 = system: NCI-H1650
Outline: as §1

## COc1cc2nccc(Oc3ccc(NC(=O)Nc4cc(C)on4)c(Cl)c3)c2cc1OC [Tivozanib] + CS(=O)(=O)CCNCc1ccc(-c2ccc3ncnc(Nc4ccc(OCc5cccc(F)c5)c(Cl)c4)c3c2)o1 [Lapatinib] (partner 2 µM)
201T; first compound 0.005 µM
  relative viability: 1.04
201T; first compound 0.01581 µM
  relative viability: 1.06
201T; first compound 0.05 µM
  relative viability: 1.01
201T; first compound 0.1581 µM
  relative viability: 0.988
201T; first compound 0.5 µM
  relative viability: 1.07
LOU-NH91; first compound 0.005 µM
  relative viability: 0.704
LOU-NH91; first compound 0.01581 µM
  relative viability: 0.772
LOU-NH91; first compound 0.05 µM
  relative viability: 0.758
LOU-NH91; first compound 0.1581 µM
  relative viability: 0.62
LOU-NH91; first compound 0.5 µM
  relative viability: 0.794
NCI-H727; first compound 0.005 µM
  relative viability: 0.676
NCI-H727; first compound 0.01581 µM
  relative viability: 0.901
NCI-H727; first compound 0.05 µM
  relative viability: 0.957
NCI-H727; first compound 0.5 µM
  relative viability: 0.787
HCC-366; first compound 0.005 µM
  relative viability: 0.991
HCC-366; first compound 0.01581 µM
  relative viability: 1.08
HCC-366; first compound 0.05 µM
  relative viability: 1.12
HCC-366; first compound 0.1581 µM
  relative viability: 1.03
HCC-366; first compound 0.5 µM
  relative viability: 0.976
HARA; first compound 0.005 µM
  relative viability: 0.615
HARA; first compound 0.01581 µM
  relative viability: 0.724
HARA; first compound 0.05 µM
  relative viability: 0.79
HARA; first compound 0.1581 µM
  relative viability: 0.641
HARA; first compound 0.5 µM
  relative viability: 0.831
ABC-1; first compound 0.005 µM
  relative viability: 1.33
ABC-1; first compound 0.01581 µM
  relative viability: 1.15
ABC-1; first compound 0.05 µM
  relative viability: 1.26
ABC-1; first compound 0.1581 µM
  relative viability: 1.16
ABC-1; first compound 0.5 µM
  relative viability: 1.22
NCI-H2009; first compound 0.005 µM
  relative viability: 0.88
NCI-H2009; first compound 0.01581 µM
  relative viability: 1.1
NCI-H2009; first compound 0.05 µM
  relative viability: 0.937
NCI-H2009; first compound 0.1581 µM
  relative viability: 0.896
NCI-H2009; first compound 0.5 µM
  relative viability: 0.909
EKVX; first compound 0.005 µM
  relative viability: 0.224
EKVX; first compound 0.01581 µM
  relative viability: 0.199
EKVX; first compound 0.05 µM
  relative viability: 0.216
EKVX; first compound 0.1581 µM
  relative viability: 0.182
EKVX; first compound 0.5 µM
  relative viability: 0.192
NCI-H1666; first compound 0.005 µM
  relative viability: 0.561
NCI-H1666; first compound 0.01581 µM
  relative viability: 0.621
NCI-H1666; first compound 0.05 µM
  relative viability: 0.641
NCI-H1666; first compound 0.1581 µM
  relative viability: 0.607
NCI-H1666; first compound 0.5 µM
  relative viability: 0.84
NCI-H3122; first compound 0.005 µM
  relative viability: 0.972
NCI-H3122; first compound 0.01581 µM
  relative viability: 0.979
NCI-H3122; first compound 0.05 µM
  relative viability: 0.989
NCI-H3122; first compound 0.1581 µM
  relative viability: 1.16
NCI-H3122; first compound 0.5 µM
  relative viability: 1.03
NCI-H460; first compound 0.005 µM
  relative viability: 0.889
NCI-H460; first compound 0.01581 µM
  relative viability: 1
NCI-H460; first compound 0.05 µM
  relative viability: 0.979
NCI-H460; first compound 0.1581 µM
  relative viability: 1.12
NCI-H460; first compound 0.5 µM
  relative viability: 0.948
PC-14; first compound 0.005 µM
  relative viability: 0.245
PC-14; first compound 0.01581 µM
  relative viability: 0.325
PC-14; first compound 0.05 µM
  relative viability: 0.308
PC-14; first compound 0.1581 µM
  relative viability: 0.255
PC-14; first compound 0.5 µM
  relative viability: 0.332
BEN; first compound 0.005 µM
  relative viability: 0.476
BEN; first compound 0.01581 µM
  relative viability: 0.839
BEN; first compound 0.05 µM
  relative viability: 0.722
BEN; first compound 0.5 µM
  relative viability: 0.633
NCI-H661; first compound 0.005 µM
  relative viability: 0.436
NCI-H661; first compound 0.01581 µM
  relative viability: 0.495
NCI-H661; first compound 0.05 µM
  relative viability: 0.46
NCI-H661; first compound 0.1581 µM
  relative viability: 0.496
NCI-H661; first compound 0.5 µM
  relative viability: 0.553
NCI-H2170; first compound 0.005 µM
  relative viability: 0.252
NCI-H2170; first compound 0.01581 µM
  relative viability: 0.296
NCI-H2170; first compound 0.05 µM
  relative viability: 0.266
NCI-H2170; first compound 0.5 µM
  relative viability: 0.289
NCI-H1437; first compound 0.005 µM
  relative viability: 0.771
NCI-H1437; first compound 0.01581 µM
  relative viability: 0.8
NCI-H1437; first compound 0.05 µM
  relative viability: 0.777
NCI-H1437; first compound 0.1581 µM
  relative viability: 0.824
NCI-H1437; first compound 0.5 µM
  relative viability: 0.708
COR-L 105; first compound 0.01581 µM
  relative viability: 0.317
COR-L 105; first compound 0.05 µM
  relative viability: 0.368
COR-L 105; first compound 0.1581 µM
  relative viability: 0.322
COR-L 105; first compound 0.5 µM
  relative viability: 0.339
CAL-12T; first compound 0.005 µM
  relative viability: 0.563
CAL-12T; first compound 0.01581 µM
  relative viability: 0.752
CAL-12T; first compound 0.05 µM
  relative viability: 0.666
CAL-12T; first compound 0.5 µM
  relative viability: 0.784
LK-2; first compound 0.005 µM
  relative viability: 0.951
LK-2; first compound 0.01581 µM
  relative viability: 0.842
LK-2; first compound 0.05 µM
  relative viability: 0.918
LK-2; first compound 0.1581 µM
  relative viability: 0.742
LK-2; first compound 0.5 µM
  relative viability: 0.683
NCI-H1650; first compound 0.005 µM
  relative viability: 0.707
NCI-H1650; first compound 0.01581 µM
  relative viability: 0.845
NCI-H1650; first compound 0.05 µM
  relative viability: 0.836
NCI-H1650; first compound 0.1581 µM
  relative viability: 0.717
NCI-H1650; first compound 0.5 µM
  relative viability: 0.721
